Reference: patent US20110099670A1, “[…] CODING FOR CIS-ACONITIC DECARBOXYLASE AND USE THEREOF” (priority 2008, published 2011)

Target: T1, cis-aconitate decarboxylase (CAD) (Aspergillus terreus, UniProt Q0C8L3)
T1 construct: Partial Purification of CAD from Itaconic Acid Producing A. Terreus; endogenous in cells; host or cells: Aspergillus terreus NRRL 1960 mycelium (cell free extract)
Assay: Effect of the addition of stabilizing compounds on the CAD activity
Assay type: biochemical, Aspergillus terreus NRRL 1960
Details: * final concentration of 20 mM, PEG 20% w/v; for CAD activity after 48 h: stabilizer added to buffer; for Initial CAD Activity: stabilizer added to buffer of A. terreus cell free extract
Procedure: The enzyme activity determination was essentially as described (Bentley et al., 1957 supra; Dwiarti et al., 2002, J Biosci Bioeng 94(1):29-33). 800 μl of 0.2 M sodium phosphate pH 6.5 was mixed with 100 μl 10 mM cis-aconitic acid and 100 μl protein solution and incubated for 20 till 60 min at 37° C. The reaction was stopped by the addition of 100 μl 12 M HCl. The amount of itaconic acid formed was determined by isocratic chromatography in 4 mM sulphuric acid on Bio-Rad Aminex HPX-87H column in a Dionex HPLC equipped with an UV detector at 215 nm. Calibration of the signal was accomplished by running a known amount of itaconic acid in a separate run. One unit (U) is one μmol of itaconic acid formed per minute. The same chromatographic assay was used to monitor the amount of itaconic acid formed in the broth of shake flasks or fermenter cultures as being indicative for cis-aconitate decarboxylase (CAD) induction. The protein concentration was measured according to Bradford with the Bio-Rad protein assay (Bradford, Anal Biochem 1976; 72:248-54).
Approximately 1 g of frozen mycelium was transferred to a Teflon vessel and grinded with a metal ball for one minute using a dismembrator (Braun-Melsungen, Germany). Multiple batches of the powdered mycelium were resuspended in 10 ml 0.2 M sodium phosphate buffer pH 6.5 containing 1 mM DTT and 1 mM EDTA and allowed to hydrate at 0° C. for thirty minutes while mixing and centrifuged at 15000 g for 30 minutes at 4° C. to obtain the CFE.
In the purification of CAD the inherent instability of the protein was noticed. […] To overcome this problem we adapted the purification method by the addition of potential stabilizers to the buffers (Table 2).

[1] = after 48 h relative to initial CAD activity

T1 sequence (Q0C8L3 whole entry): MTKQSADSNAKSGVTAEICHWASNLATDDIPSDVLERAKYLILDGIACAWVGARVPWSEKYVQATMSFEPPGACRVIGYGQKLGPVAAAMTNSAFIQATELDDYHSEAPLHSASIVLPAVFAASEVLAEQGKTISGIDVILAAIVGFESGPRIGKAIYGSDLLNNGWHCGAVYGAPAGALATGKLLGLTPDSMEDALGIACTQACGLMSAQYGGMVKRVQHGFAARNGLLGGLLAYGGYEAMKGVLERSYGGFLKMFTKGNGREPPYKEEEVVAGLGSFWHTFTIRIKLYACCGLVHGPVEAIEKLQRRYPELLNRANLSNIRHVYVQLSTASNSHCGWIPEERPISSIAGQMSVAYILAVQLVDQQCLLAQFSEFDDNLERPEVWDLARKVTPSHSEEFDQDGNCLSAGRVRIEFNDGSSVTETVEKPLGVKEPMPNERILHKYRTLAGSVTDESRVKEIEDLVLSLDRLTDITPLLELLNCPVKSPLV

SMILES: O=C1O[C@H]([C@@H](O)CO)C(O)=C1O [Ascorbic Acid]
- CAD activity after 48 h: 0.19 U/mL
- remaining activity at 20000 µM [1]: 14%
- Initial CAD Activity: 1.36 U/mL

SMILES: O=C(O)c1ccccc1 [Benzoate]
- CAD activity after 48 h: 0.43 U/mL
- Remaining activity [1]: 32%
- Initial CAD Activity: 1.36 U/mL

SMILES: O=S([O-])[O-].[Na+].[Na+] [Na2SO3]
- CAD activity after 48 h: 1.30 U/mL
- Remaining activity [1]: 88%
- Initial CAD Activity: 1.48 U/mL
